Experimental findings from ChEMBL document CHEMBL4219125, “Small molecule modulators of PCSK9 - A literature and patent overview” (Bioorg Med Chem Lett, 2018) are described below.

For orientation: inhibition in vivo means the change of the read-out against control, counted positive when it falls. By IC50 is commonly meant the midpoint of a concentration-inhibition curve. One may read the inhibition as the change of the read-out against control, counted positive when it falls. A word on the Kd: it is the concentration at which binding is half-saturated. The Kp is tissue or fluid exposure divided by exposure in the circulation.

Square brackets hold non-standard residues; d marks the D form. Peptide text beside a SMILES is read from it. hArg = N=C(N)NCCCC[C@H](N)C(=O)O

The test system of data set [1] is Rattus norvegicus. In words: In vivo inhibition of PCSK9 in rat plasma assessed as decrease in total plasma cholesterol level at 50 mg/kg, po administered daily for 14 days. It counts as functional. The following applies: 336 h.
Data set [2] relates to Rattus norvegicus. The data set is described as follows: In vivo inhibition of PCSK9 in rat plasma assessed as decrease in LDL-c level at 50 mg/kg, po administered daily for 14 days. It counts as functional. As to conditions: 336 h.
The subject of data set [3] is HeLa. In words: Inhibition of PCSK9 expression in human HeLa cells after overnight incubation by ELISA. In kind it is functional, cell-based. Background: An ELISA detects its analyte on a solid surface through an enzyme-linked reagent.
For data set [4], the system named is Rattus norvegicus. In words: Reduction of circulating PCSK9 level in rat plasma at 50 mg/kg, po administered daily for 14 days. It counts as functional. The following applies: 336 h.
For data set [5], the target named is T1, Proprotein convertase subtilisin/kexin type 9 (Homo sapiens, UniProt Q8NBP7). The data set is described as follows: Inhibition of PCSK9 in human HepG2 cells assessed as increase in uptake of fluorescent Dil-LDL at 1.5 uM relative to control. It counts as cell-based.
Data set [6] deals with T1, Proprotein convertase subtilisin/kexin type 9. In words: Inhibition of PCSK9 in human HepG2 cells assessed as increase in uptake of fluorescent Dil-LDL at 0.37 uM relative to control. In kind it is cell-based.
In data set [7] the test system is Hamster. The data set is described as follows: In vivo inhibition of PCSK9 in dietary hyperlipidemia hamster model assessed as reduction in blood LDL-c level at 0.04 mg/kg, po administered daily for 7 days. In kind it is functional. The following applies: Cricetinae, 168 h.
The test system of data set [8] is HepG2. The data set is described as follows: Inhibition of PCSK9 production in human HepG2 cells after 24 hrs by ELISA. The following applies: HepG2, 24 h. It counts as functional, cell-based.
The test system of data set [9] is Hamster. In words: In vivo inhibition of PCSK9 in dietary hyperlipidemia hamster model assessed as reduction in blood LDL-c level at 0.01 mg/kg, po administered daily for 7 days. It counts as functional. As to conditions: Cricetinae, 168 h.
Data set [10] concerns Mus musculus. In words: Reduction in plasma total cholesterol level in C57BL/6 mouse at 4 mg/kg, sc administered once daily for 2 weeks with high fat diet by enzymatic method relative to untreated control. The arrangement: scale not given: the % may be the effect or the level left. It counts as functional.
The target of data set [11] is T1, Proprotein convertase subtilisin/kexin type 9. In words: Inhibition of PCSK9 (unknown origin) expressed in human HepG2 cells assessed as increase in LDL uptake at 100 uM. It counts as cell-based. The arrangement: scale not given: the % may be the effect or the level left.
Data set [12] shares this target. The data set is described as follows: Inhibition of PCSK9 in human HepG2 cells assessed as increase in LDLR expression levels at 1.6 uM relative to control. In kind it is cell-based.
The target is the same in data set [13]. The data set is described as follows: Inhibition of recombinant human C-terminal His8-tagged PCSK9 expressed in Chinese hamster ovary cells by TR-FRET assay. In kind it is cell-based. (Time-resolved FRET reads energy transfer from a long-lived donor to a nearby acceptor.)
Data set [14] shares this target. The data set is described as follows: Inhibition of recombinant PCSK9 (unknown origin) expressed in human HepG2 cells assessed as increase in LDL uptake at 1.25 uM after 16 hrs by fluorescence assay. Set-up: scale not given: the % may be the effect or the level left. In kind it is cell-based.
Data set [15] has the same target. In words: Inhibition of PCSK9 in human HepG2 cells assessed as increase in LDL receptor levels at 200 uM after 18 to 24 hrs by Western blot analysis relative to control. It counts as cell-based. A general note: A western blot detects proteins with antibodies after separation by electrophoresis.
Data set [16] has the same target. In words: Inhibition of PCSK9 (unknown origin) at 1.25 uM.
Data set [17] shares this target. The data set is described as follows: Inhibition of PCSK9 in human HuH7 cells assessed as increase in LDL uptake by FACS analysis. In kind it is cell-based. Set-up: scale not given: the % may be the effect or the level left.
Data set [18] has the same target. In words: Inhibition of PCSK9 in human HuH7 cells assessed as increase in cell surface LDLR expression level at 100 uM by FACS analysis relative to control. Set-up: scale not given: the % may be the effect or the level left. It counts as cell-based.
For data set [19] the target is unchanged. The data set is described as follows: Inhibition of binding of full-length recombinant human PCSK9 (M1 to Q692 residues) expressed in HEK293 cells to full-length LDLR (A1 to A699 residues) by SPR analysis.
For data set [20] the target is unchanged. The data set is described as follows: Binding affinity to recombinant human C-terminal His8-tagged PCSK9 expressed in Chinese hamster ovary cells by biolayer interferometry.
Data set [21] has the same target. The data set is described as follows: Activation of PCSK9 (unknown origin) expressed in human HepG2 cells assessed as decrease in LDL uptake at 25 uM. The following applies: hepg2, 25 µM. Set-up: scale not given: the % may be the effect or the level left. It counts as cell-based.
For data set [22] the target is unchanged. In words: Inhibition of PCSK9 (unknown origin) expressed in human HepG2 cells assessed as increase in LDL uptake at 0.5 uM. It counts as cell-based. Set-up: scale not given: the % may be the effect or the level left.
Data set [23] deals with Huh-7. The data set is described as follows: Inhibition of PCSK9 expression in human HuH7 cells after overnight incubation by ELISA. In kind it is functional, cell-based.
Data set [24] has as its target T1, Proprotein convertase subtilisin/kexin type 9. The data set is described as follows: Inhibition of recombinant PCSK9 (unknown origin) expressed in human HepG2 cells assessed as increase in LDL uptake at 10 uM after 16 hrs by fluorescence assay. In kind it is cell-based. Set-up: scale not given: the % may be the effect or the level left.
Data set [25] shares this target. The data set is described as follows: Inhibition of recombinant PCSK9 (unknown origin) expressed in human HepG2 cells assessed as increase in LDL uptake at 0.31 uM after 16 hrs by fluorescence assay. It counts as cell-based. The arrangement: scale not given: the % may be the effect or the level left.
The target is the same in data set [26]. The data set is described as follows: Inhibition of recombinant PCSK9 (unknown origin) expressed in human HepG2 cells assessed as increase in LDLR expression levels relative to control. In kind it is cell-based. Set-up: scale not given: the % may be the effect or the level left.
Data set [27] in a line: Ratio of drug level in liver to plasma in monkey at 30 mg/kg, po. It counts as ADME, organism-based, Macaca mulatta. As to conditions: rhesus monkey, liver and plasma.

On to `O=C(c1ccc(-n2nnc3cccnc32)cc1)N(c1ncccc1Cl)[C@@H]1CCCNC1`, for which the inhibition in vivo at 50 mg/kg was 30% in data set [1], 58% in [2] and 50% in data set [4]. In addition, the IC50 in data set [3] is 500 nM.
`CCN(CC)C(=O)c1ccc(NC(=O)CSc2nnc(-c3cccs3)n2C2CC2)cc1`: the fold change (FC) in data set [5] amounted to 5; in data set [6], 3.
Regarding `FC(F)(F)c1ccc(-c2nc3ccc(C(F)(F)F)c(Cl)c3o2)cc1`, the inhibition in vivo at 0.04 mg/kg in data set [7] was determined as 57%. In data set [8], this compound registered a 50% inhibitory concentration (IC50) of 0.036 nM. Further, the inhibition in vivo at 0.01 mg/kg in data set [9] is 46%.
For the compound `CC(C)c1c(C(=O)Nc2ccccc2)c(-c2ccccc2)c(-c2ccc(F)cc2)n1CC[C@@H](O)C[C@@H](O)CC(=O)O` [ATORVASTATIN], the Activity in [10] is 27%.
As for `CC(=O)N[C@@H](CO)C(=O)N[C@@H](COP(=O)(O)O)C(=O)N1CCC(c2ccc(C(F)(F)F)cc2)CC1`, in data set [11], the Activity was 105%.
Take `Cc1cc(C(=O)C2=C(O)C(=O)N(CCCN3CCOCC3)C2c2ccncc2)ccc1OCc1ccccc1` (centres undefined): the figures for the fold change (FC) in data set [12], in [5] and in data set [6] were 8, 10 and 6, respectively. Further, the Activity in [10] was determined as 32%.
Consider `CC[C@H](C)[C@H](NC(=O)[C@H](CCCCNC(=N)N)NC(=O)[C@@H](NC(=O)[C@H](CC(C)C)NC(=O)[C@H](CC(N)=O)NC(=O)[C@H](Cc1c[nH]c2ccccc12)NC(=O)CNC(=O)[C@@H]1CCCN1C(=O)[C@H](Cc1ccccc1)NC(=O)[C@H](CO)NC(=O)[C@H](CCC(=O)O)NC(=O)[C@@H](N)CCSC)C(C)C)C(=O)NCC(=O)N[C@@H](CC(C)C)C(=O)N[C@@H](CC(C)C)C(=O)N[C@@H](CCCNC(=N)N)C(=O)O` (H-MESFPGWNLV[hArg]IGLLR-OH), for which the IC50 in data set [13] turned out to be 8300 nM.
Regarding `Cc1cc2c(cc1-c1ccccc1F)C(=O)NCC2`, the Activity in data set [14] stood at 33%.
Consider `Cc1ccc(C(=O)Nc2ccc(S(=O)(=O)O)c3cc(S(=O)(=O)O)cc(S(=O)(=O)O)c23)cc1NC(=O)c1cccc(NC(=O)Nc2cccc(C(=O)Nc3cc(C(=O)Nc4ccc(S(=O)(=O)O)c5cc(S(=O)(=O)O)cc(S(=O)(=O)O)c45)ccc3C)c2)c1`, for which the fold change (FC) in [15] came to 15.
In data set [16], `O=S(=O)(Nc1cccc2c1CCCC2)c1ccc(C2CCNCC2)cc1` came in with an inhibition greater than 50%.
For H-VTVRFW-OH, the results for the Activity in data set [17] and in [18] were 95% and 100%, respectively.
As for `Cn1cncc1-c1ncc(-c2ncc(-c3ncc(-c4ccccc4)n3C)n2C)n1C`, the concentration for half-maximal inhibition (IC50) in data set [19] was found to be 11200 nM.
Consider `CC(=O)N[C@H](C(=O)N[C@H](C(=O)N[C@@H](Cc1ccccc1)C(=O)N[C@H](C(=O)N[C@@H](CO)C(=O)N[C@@H](Cc1c[nH]c2ccccc12)C(=O)N[C@@H](CCC(=O)O)C(=O)N[C@@H](CCC(=O)O)C(=O)N[C@@H](Cc1ccc(O)cc1)C(=O)N[C@@H](CC(C)C)C(=O)N[C@@H](CC(=O)O)C(=O)N[C@@H](Cc1c[nH]c2ccccc12)C(=O)N[C@H](C(N)=O)C(C)C)[C@@H](C)O)C(C)C)[C@@H](C)O`, for which, in [20], the Kd came to 700 nM.
As for `O=C(N[C@H](CNc1nn[nH]n1)Cc1c[nH]c2ccccc12)[C@H](Cc1ccc(O)cc1)NC(=O)C12CC3CC(CC(C3)C1)C2`, in [21], the Activity came to 50%.
On to `FC(F)(F)c1ccc(-c2nc3c(ccc4cc[nH]c43)o2)cc1`, for which the midpoint of inhibition in data set [8], the IC50, lay at 29.7 nM.
For `c1ccc2c(c1)NC1CNCCC21` (centres undefined), the Activity in data set [22] is 60%.
Take `COc1ccc(CCC(=O)N(c2nccc3ccccc23)[C@@H]2CCCNC2)cc1`: inhibition in data set [23] was half-maximal at 2200 nM (IC50).
Take `Cn1ncc(-c2ccc(C(=O)N(c3ncccc3Cl)[C@@H]3CCCNC3)cc2F)c1-c1nnn[nH]1`: the half-maximal inhibitory concentration (IC50) in [3] came to 3700 nM.
On to `Cc1cc2c(cc1-c1ccccc1F)CNCC2`, for which the figures for the Activity in data set [24], in [25] and in [26] were greater than 100%, 50% and 10%, respectively.
In turn, `CC(=O)Nc1ccc2nc(-c3ccc(C(F)(F)F)cc3)oc2c1C(F)(F)F` showed an IC50 in data set [8] of 2.1 nM.
With `CCOC(=O)O[C@@H](C)n1nnnc1-c1c(-c2ccc(C(=O)N(c3ncccc3Cl)[C@@H]3CCCNC3)cc2F)cnn1C` [PF-06815345], the partition ratio (Kp) in [27] is 28.
Take `O=S(=O)(Nc1cccc2c1CCCC2)c1ccc(N2CCNCC2)cc1`: in data set [16], the inhibition came to 66%.
